Results taken from PubChem BioAssay (NCI).
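Interpolation was linear, between the two tested concentrations surrounding the appropriate level; five concentrations were tested over 48 hours in 96-well plates. Definition used: TGI = concentration required for complete inhibition of growth.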

What was measured:
Test in all cases: NCI-60 cell line screen, 48 h
[1] = system: 786-0 renal
[2] = system: A549 NSCLC
[3] = system: ACHN renal
[4] = system: BT-549 breast
[5] = system: CAKI-1 renal
[6] = system: CCRF-CEM leukemia
[7] = system: COLO 205 colon
[8] = system: DU-145 prostate
[9] = system: EKVX NSCLC
[10] = system: HCC-2998 colon
[11] = system: HCT-116 colon
[12] = system: HCT-15 colon
[13] = system: HL-60(TB) leukemia
[14] = system: HOP-62 NSCLC
[15] = system: HOP-92 NSCLC
[16] = system: HS 578T breast
[17] = system: HT29 colon
[18] = system: IGROV1 ovarian
[19] = system: KM12 colon
[20] = system: LOX IMVI melanoma
[21] = system: M14 melanoma
[22] = system: MALME-3M melanoma
[23] = system: MCF7 breast
[24] = system: MDA-MB-231 breast
[25] = system: MDA-MB-435
[26] = system: MDA-N
[27] = system: MOLT-4 leukemia
[28] = system: NCI-H226 lung
[29] = system: NCI-H23 lung
[30] = system: NCI-H522 lung
[31] = system: NCI/ADR-RES ovarian
[32] = system: OVCAR-3 ovarian
[33] = system: OVCAR-4 ovarian
[34] = system: OVCAR-5 ovarian
[35] = system: OVCAR-8 ovarian
[36] = system: PC-3 prostate
[37] = system: RPMI-8226 leukemia
[38] = system: RXF 393 renal
[39] = system: SF-268 CNS
[40] = system: SF-295 CNS
[41] = system: SF-539 CNS
[42] = system: SK-MEL-2 melanoma
[43] = system: SK-MEL-28 melanoma
[44] = system: SK-OV-3 ovarian
[45] = system: SN12C renal
[46] = system: SNB-19 CNS
[47] = system: SNB-75 CNS
[48] = system: SR leukemia
[49] = system: SW-620 colon
[50] = system: T-47D breast
[51] = system: TK-10 renal
[52] = system: U251 CNS
[53] = system: UACC-257 melanoma
[54] = system: UACC-62 melanoma
[55] = system: UO-31 renal

Measured: TGI

Cc1ccc(/C=C2\N=C(N3CCOCC3)NC2=O)cc1
> 100 µM: all assays above
